According to US12558367B2, “Nicotinamide riboside and derivatives thereof in intravenous formulations and methods of use thereof” (ChromaDex Inc., priority 2023, dated 2026):
Entries after “also recorded” stand apart in the source; their conditions may differ.

Tests used:
[1] = Vital signs post-intervention (Study 1); format: in vivo, human; conditions: single 500 mg dose, mean (SD)
Method: (§1) The present randomized, double-blinded, placebo-controlled, pilot clinical study was initiated with the primary aim of investigating the safety, tolerability, and the blood NAD+-boosting efficacy of an acute, single dose of NR IV (500 mg, test), NAD+ IV (500 mg, active comparator), oral NR (500 mg, bridge), and saline IV (placebo control) in generally healthy adult participants. The study consisted of two parts; data from 37 and 16 participants in the first and second phases, respectively, were analyzed.
(§2) The safety of the IV infusion was evaluated using a combination of endpoints, including tolerable infusion rate, total number of adverse effects, participant vital signs, a complete blood count (CBC), a comprehensive metabolic panel (CMP), glucose and insulin levels, and the participant's self-reported subjective experience.
(§3) To assess vital signs and subdomains on the sleep and energy scales, between-groups comparisons were assessed using analysis of covariance (ANCOVA) with baseline scores as the covariate and a Bonferroni correction. Levene's test was used to check and confirm the assumption of homogeneity of variances.
For the first study, data from 37 patients were available for intent to treat analysis; for the second study, data from 16 patients were available for intent to treat analysis.

[2] = Energy/Fatigue Scale, randomized placebo-controlled pilot clinical study (Study 1); format: in vivo, human; conditions: for Mental Energy / Perceived Fatigue: possible scores 5-30; for General Energy / Motivation: possible scores 6-36; for Physical Energy: possible scores 7-42; for Emotional Energy: possible scores 8-48
Method: as §1
(§4) This was a 2-part study. The first study was a 4-arm randomized, placebo-controlled parallel trial. The 3 IV arms were double-blinded, while the 4th arm involved oral administration making it naturally unblinded. Participants were randomized at a 10:10:10:6 ratio to intravenous placebo (saline), NAD^+, NR, or oral NR (oral). The second study was a randomized parallel design trial with two arms for the purpose of evaluating the actual differences in infusion rates in real time. Participants were randomized at a 1:1 ratio to intravenous NR or NAD^+.
(§5) Vials of 50 mg/ml of NR or NAD+ were prepared in 10 ml of sterile water by DCA Pharmacy (Franklin, Tennessee) by prescription, for research administration only, and maintained in refrigerated conditions until use. For participants who were randomized to the test group or to the active comparator group, the NR or NAD+ was added to 500 ml of normal saline (B Braun 0.9% sodium chloride injection USP, preservative free) prior to intravenous administration. Those randomly assigned to the saline group received 500 ml of normal saline. Participants that were randomly assigned to the oral arm were provided with 500 mg of NR which was taken with water.
as §3
(§6) Tables A-D below reflect mean scores for each group at days 7 and 14. An ANCOVA was used to identify statistical significant differences, using baseline scores as the covariate which helps to account for the natural variation in psychological measurements, increasing the power of the study.
It is noted that the energy scale measures disruptions to energy levels; lower scores reflect greater levels of energy.

whole blood NAD+ = experiment: NAD+ analysis of dried blood spots (DBS) by LC/MS; format: in vivo, human; parameters: Mean NAD: unit not given here; conditions: for Mean NAD: dried blood spot
Method: Finger punctures were conducted using a lancet. Blood was then applied to the circles on the dried blood spot (DBS) card and allowed to dry for a minimum of 3 hours. […] See, for example, FIG. 3. The use of dried blood spots (DBS) allowed for the analysis of NAD+ levels based upon samples that could be prepared at the clinic or by the study participants from home. While 36 of 37 participants in study 1 utilized the DBS at all time points, not all samples were analyzable. […] However, the model was significant for the 3-hour timepoint (p=0.010; […] At 6 hours, near-significant differences were observed between the NAD+ and NR IV group (t=1.99, p=0.055), and significant differences were observed between the NR IV and saline groups (t=−2.80, p=0.009), and between the NR IV and oral NR groups (t=−2.59, p=0.015). See, Tables 3-9 below. Tables 3-9 below reflect mean/SD for each group at each of the 7 timepoints. A basic ANOVA was conducted to investigate the data.

[3] = Patient subjective experience and adverse event monitoring; format: in vivo, human
Method: as §2
Adverse event monitoring began on the first day of the study and continued for 14 days (study one) or 7 days (study two). Participants were instructed to notify the research staff of any new or unusual symptoms during the trial and open-ended questions during data collection solicited unexpected side effects.

[4] = Sleep Scale, pilot clinical study (Study 1); format: in vivo, human; conditions: for Sleep Maintenance: possible scores 3-18; for Sleep Latency: possible scores 4-24; for Cognitive Effects / Daytime Sleepiness / Emotional Effects / Productivity / Sleep Inertia: possible scores 5-30
Method: as §1, §4, §5, §3, §6
For the sleep scale, the greatest improvements were seen on the scale of sleep latency, which refers to the ability to fall asleep at night, and sleep-related cognitive effects.

[5] = Clinical chemistry (comprehensive metabolic panel); format: in vivo, human
Method: as §2
(§7) Between-groups comparisons of each outcome measured in the […] and CMP were evaluated using mixed between-within subjects ANOVA with the timepoint being the within subjects' factor and the group assignment as the between subjects factor. Mauchly's test of sphericity was used to confirm assumptions. Violations of the assumption of sphericity are addressed with the Greenhouse-Geisser correction.
(§8) Additional analyses were conducted using GraphPad Prism (Ver. 10.0.2). Statistical significance was determined as p<0.05, with comparisons of the test articles compared to saline or between group comparisons. 2way ANOVA with Tukey's multiple comparisons test with a single pooled variance was used to determine significance in hematology, clinical chemistry, and vitals. Time in chair was analyzed for study 1 by a one-way ANOVA with multiple comparisons, study 2 was analyzed by unpaired t-test. The baseline variable of age was analyzed for differences by one way ANOVA with multiple comparisons for study.

[6] = Hematology (complete blood count); format: in vivo, human; conditions: for elevations in white blood cells and neutrophils: baseline to three-hours post-infusion; for mean corpuscular volume (MCV): in fL (unit assumed)
Method: as §2, §7, §8

[7] = Tolerable infusion rate / infusion duration, Study 2 (IV line fully open); format: in vivo, human; conditions: males, rate decreased on request, mean (SD)
From the text: as §4, with “NAD^+. […]” for “NAD^+.”
(§9) In the first study, participants began the infusion at a rate of 20 drops per minute for the first 15 minutes to ensure safety and comfort. […] Participants were closely monitored for the duration of the infusion, and the infusion rate was decreased, as applicable, upon participant request.
as §8, with “2way ANOVA with Tukey's multiple comparisons test with a single pooled variance was used to determine significance in hematology, clinical chemistry, and vitals.” left out

[8] = Tolerable infusion rate / infusion duration, Study 1; format: in vivo, human; conditions: 500 mg in 500 ml saline, start 20 drops per minute for 15 minutes, then rate by participant comfort, mean ± SD
Method: as §5, §9
as §8, with “2way ANOVA with Tukey's multiple comparisons test with a single pooled variance was used to determine significance in hematology, clinical chemistry, and vitals.” left out

blood NAD+ = conditions: cited from earlier work
[9] = Energy/Fatigue Scale Day 7, mean score, lower = greater energy
[10] = Energy/Fatigue Scale Day 7, mean score, lower scores = greater energy, single 500 mg dose
[11] = Energy/Fatigue Scale Day 14, mean score, lower = greater energy
[12] = Immediately Post-Intervention (10 minutes after infusion)
[13] = 3 hours post infusion, mean ± SD

NC(=O)c1ccc[n+]([C@@H]2O[C@H](CO)[C@@H](O)[C@H]2O)c1.[Cl-] [oral NR, nicotinamide riboside chloride]
Post-intervention diastolic blood pressure [1]: 71.00 (SD: 6.24) mmHg
Post-intervention heart rate [1]: 65.78 (SD: 7.95) beats per minute
Post-intervention systolic blood pressure [1]: 108.56 (SD: 9.08) mmHg
Mental Energy [2, 9]: 14.90
Perceived Fatigue [2, 9]: 14.10
General Energy [2, 9]: 23.20
Motivation [2, 9]: 12.20
Physical Energy [2, 10]: 19.80
Emotional Energy [2, 9]: 32.50
Mental Energy [2, 11]: 15.67
Perceived Fatigue [2, 11]: 16.44
General Energy [2, 11]: 23.67
Motivation [2, 11]: 12.56
Physical Energy [2, 11]: 20.00
Emotional Energy [2, 11]: 32.44
Mean NAD (whole blood NAD+; 3 Hours Post-Intervention): 18.54
Mean NAD (whole blood NAD+; 6 Hours Post-Intervention): 18.01
Mean NAD (whole blood NAD+; 24 Hours Post-Intervention): 23.25
Mean NAD (whole blood NAD+; Baseline Scores): 18.34
Mean NAD (whole blood NAD+; [12]): 19.16
safety / attributable adverse events ([3]; intervention and follow-up period up to 14 days): safe and well tolerated
Sleep Maintenance ([4]; Sleep Scale Day 14, mean score): 7.50
Sleep Latency ([4]; Sleep Scale Day 14, mean score): 10.00
Cognitive Effects ([4]; Sleep Scale Day 14, mean score): 16.36
Daytime Sleepiness ([4]; Sleep Scale Day 14, mean score): 15.63
Emotional Effects ([4]; Sleep Scale Day 14, mean score): 20.50
Productivity ([4]; Sleep Scale Day 14, mean score): 12.88
Sleep Inertia ([4]; Sleep Scale Day 14, mean score): 15.88
clinically relevant changes in comprehensive metabolic panel or CBC with differential ([5]; Study 1): did not display any clinically relevant changes
elevations in white blood cells and neutrophils [6]: not observed

NC(=O)c1ccc[n+]([C@@H]2O[C@H](COP(=O)([O-])OP(=O)(O)OC[C@H]3O[C@@H](n4cnc5c(N)ncnc54)[C@H](O)[C@@H]3O)[C@@H](O)[C@H]2O)c1 [NAD+ IV, Nicotinamide Adenine Dinucleotide]
Post-intervention diastolic blood pressure [1]: 73.40 (SD: 13.15) mmHg
Post-intervention heart rate [1]: 68.40 (SD: 8.10) beats per minute
Post-intervention systolic blood pressure [1]: 117.20 (SD: 14.54) mmHg
Mental Energy [2, 9]: 13.13
Perceived Fatigue [2, 9]: 15.75
General Energy [2, 9]: 20.63
Motivation [2, 9]: 11.13
Physical Energy [2, 10]: 19.63
Emotional Energy [2, 9]: 31.75
Mental Energy [2, 11]: 14.50
Perceived Fatigue [2, 11]: 15.50
General Energy [2, 11]: 20.13
Motivation [2, 11]: 13.50
Physical Energy [2, 11]: 18.50
Emotional Energy [2, 11]: 29.63
average infusion rate (total infusion time) [7]: 98.88 (SD: 46.70) minutes
effect on whole blood NAD+ (whole blood NAD+; NR IV: at 3 hours relative to placebo and NAD+ IV, NAD+ IV: within 24 hours): did not significantly elevate
increase in whole blood NAD+ relative to baseline (whole blood NAD+; at 24 hours): 2%
Mean NAD (whole blood NAD+; 3 Hours Post-Intervention): 19.20
Mean NAD (whole blood NAD+; 6 Hours Post-Intervention): 18.88
Mean NAD (whole blood NAD+; 24 Hours Post-Intervention): 19.73
Mean NAD (whole blood NAD+; Baseline Scores): 19.27
Mean NAD (whole blood NAD+; [12]): 19.16
comfort level described by majority of patients ([3]; during IV infusion): low
patients having a bowel movement during the IV ([3]; fraction of patients, nursing staff report): Approximately half
sensations / adverse experiences reported during infusion ([3]; patient self-report, 500 mg IV): anxiety, headaches, nausea, and sudden urges to have a bowel movement or diarrhea; also recorded: nausea, headache, diarrhea, and muscle tightness
Sleep Maintenance ([4]; Sleep Scale Day 7, mean score): 8.88
Sleep Latency ([4]; Sleep Scale Day 7, mean score): 11.63
Cognitive Effects ([4]; Sleep Scale Day 7, mean score): 15.50
Daytime Sleepiness ([4]; Sleep Scale Day 7, mean score): 17.63
Emotional Effects ([4]; Sleep Scale Day 7, mean score): 15.75
Productivity ([4]; Sleep Scale Day 7, mean score): 13.86
Sleep Inertia ([4]; Sleep Scale Day 7, mean score): 17.38
Sleep Maintenance ([4]; Sleep Scale Day 14, mean score): 8.25
Sleep Latency ([4]; Sleep Scale Day 14, mean score): 10.75
Cognitive Effects ([4]; Sleep Scale Day 14, mean score): 15.63
Daytime Sleepiness ([4]; Sleep Scale Day 14, mean score): 16.88
Emotional Effects ([4]; Sleep Scale Day 14, mean score): 16.38
Productivity ([4]; Sleep Scale Day 14, mean score): 13.25
Sleep Inertia ([4]; Sleep Scale Day 14, mean score): 16.00
significant differences in bilirubin and AST (indicators of liver function) ([5]; 3- and 24-hour timepoints): not detected
change in globulin from baseline to 24 hours post infusion ([5]; Study 1, mean ± SD): 0.1300±0.1829
estimated glomerular filtration rate change from baseline to 3 hours post infusion ([5]; Study 1, mean ± SD, not deemed clinically significant): 1.400±8.462
White blood cell count [6, 13]: 6.990±2.386 Thousand/microliter
absolute neutrophils [6, 13]: 4724±2159 Cells/microliter
mean corpuscular volume (MCV) [6, 13]: 87.38±3.991
mean corpuscular volume (MCV) ([6]; 24 hours post infusion, mean ± SD): 87.34±3.035
elevations in white blood cells and neutrophils [6]: clinically significant elevations in white blood cells and increases in absolute and percentage neutrophils
mean corpuscular volume (MCV) ([6]; baseline, mean ± SD): 88.43±3.772
infusion intake, average [8]: 182.9 ± 55.93 min

NC(=O)c1ccc[n+]([C@@H]2O[C@H](COP(=O)([O-])O)[C@@H](O)[C@H]2O)c1 [NMN, Nicotinamide mononucleotide]
safety and tolerability (blood NAD+; 300 mg in 100 mL saline, 5 mL/min IV, 10 healthy Japanese adults (Kimura et al.)): safe and well-tolerated
blood NAD+ levels (blood NAD+; intravenous NMN (Kimura et al.)): elevated blood NAD+ levels at multiple timepoints relative to baseline
